Assay results: US20250368628A1, “METHODS AND COMPOUNDS FOR MODULATING INHERITED GENETIC DISEASES” (Design Therapeutics, Inc., priority 2022, published 2025)
Where two headings read alike, the source gives them in different places.

What was measured:
[1] = tested on: Myotonic Dystrophy 1 affected patient fibroblasts (Coriel GM04602; 1600 CTG repeats); assay: DM1 foci reduction assay (EC50 assay; CAG10-Cy3 FISH, foci per nucleus); type: cell-based
Procedure, shortened: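 Foci per nucleus counted by 20× imaging of 4 areas per well, after overnight FISH with 5 nM CAG10-Cy3 and DAPI staining of fixed, permeabilized cells. DM1 fibroblasts (GM04602, 1600 CTG) were dosed 48 h at 37 °C, 8 points, 3-fold dilutions, 3 μM top concentration.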

[2] = tested on: F35T cells; assay: Foci reduction in FECD (CAG10-Cy3 FISH, foci per nucleus); type: cell-based
Procedure, shortened: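 Foci per nucleus were counted by imaging after overnight CAG10-Cy3 FISH at 37 °C (30% formamide, 2×SSC) with DAPI counterstain, on PFA-fixed, ethanol-permeabilized F35T cells. The cells, seeded at 5000 per well in supplemented Opti-MEM, had received 8-point compound dilutions for 48 h at 37 °C.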

[3] = Homo sapiens, Fibroblast; DM1 patient fibroblasts, 48 h treatment, foci per nucleus; read-out: DM1 EC50, 48 h
[4] = F35T cells, 48 h treatment, foci per nucleus; read-out: FECD EC50, 48 h
[5] = Homo sapiens, Fibroblast; DM1 patient fibroblasts, foci per nucleus, 48 h treatment; read-out: DM1 EC50, 48 h
[6] = F35T cells, foci per nucleus, 48 h treatment; read-out: FECD EC50, 48 h

| Structure (SMILES) | EC50 [1, 3] [nM] | EC50 [2, 4] [nM] | EC50 [1, 5] [nM] | EC50 [2, 6] [nM] |
| --- | --- | --- | --- | --- |
| CN(C)CCOCCNC(=O)CCNC(=O)c1nc(NC(=O)c2cc(NC(=O)CCNC(=O)c3nc(NC(=O)CCCNC(=O)c4cc(NC(=O)c5nc(NC(=O)CCNC(=O)c6cc(NC(=O)c7nccn7C)cn6C)cn5C)cn4C)cn3C)cn2C)cn1C [Compound B-42] | 100 to 500 | 100 to 500 |  |  |
| Cn1cc(NC(=O)c2nc(NC(=O)CCNC(=O)c3cc(NC(=O)c4nccn4C)cn3C)cn2C)cc1C(=O)NCCCC(=O)Nc1cn(C)c(C(=O)NCCC(=O)Nc2cc(C(=O)Nc3cn(C)c(C(=O)NCCCN(C(=O)OC(C)(C)C)C(CO)CO)n3)n(C)c2)n1 [Compound B-390] | 100 to 500 | 100 to 500 |  |  |
| CN(CCCNC(=O)OC(C)(C)C)CCCNC(=O)c1nc(NC(=O)c2cc(NC(=O)CCNC(=O)c3nc(NC(=O)CCCNC(=O)c4cc(NC(=O)c5nc(NC(=O)CCNC(=O)c6cc(NC(=O)c7nccn7C)cn6C)cn5C)cn4CCCCCCN=[N+]=[N-])cn3C)cn2C)cn1C [Compound B-363] | < 100 | < 100 |  |  |
| CC(=O)N1CCC(C#CC#CC2CCN(C(=O)CCNC(=O)c3nc(NC(=O)c4cc(NC(=O)CCNC(=O)c5nc(NC(=O)CCCNC(=O)c6cc(NC(=O)c7nc(NC(=O)CCNC(=O)c8cc(NC(=O)c9nccn9C)cn8C)cn7C)cn6CCN)cn5C)cn4C)cn3C)CC2)CC1 [Compound B-266] | < 100 | < 100 |  |  |
| CCCCCCn1cc(NC(=O)c2nc(NC(=O)CCNC(=O)c3cc(NC(=O)c4nccn4C)cn3C)cn2C)cc1C(=O)NCCCC(=O)Nc1cn(C)c(C(=O)NCCC(=O)Nc2cc(C(=O)Nc3cn(C)c(C(=O)NCCC(=O)N4CCN(C)CC4)n3)n(C)c2)n1 [Compound B-425] |  |  | < 100 | < 100 |
| CCCCCCN1CCC(C#CC#CC2CCN(CCOCCOCCOCCNC(=O)CCNC(=O)c3nc(NC(=O)c4cc(NC(=O)CCNC(=O)c5nc(NC(=O)CCCNC(=O)c6cc(NC(=O)c7nc(NC(=O)CCNC(=O)c8cc(NC(=O)c9nccn9C)cn8C)cn7C)cn6C)cn5C)cn4C)cn3C)CC2)CC1 [Compound B-172] | < 100 | 100 to 500 |  |  |
| CC(=O)N1CCC(C#CC#CC2CCN(C(=O)CCNC(=O)c3nc(NC(=O)c4cc(NC(=O)CCNC(=O)c5nc(NC(=O)CCCNC(=O)c6cc(NC(=O)c7nc(NC(=O)CCNC(=O)c8cc(NC(=O)c9nccn9C)cn8C)cn7C)cn6CCCCN)cn5C)cn4C)cn3C)CC2)CC1 [Compound B-280] | < 100 | < 100 |  |  |
| COCCOCCOCCOCCOCCOCCOc1ccccc1C#CCNCCCNC(=O)c1nc(NC(=O)c2cc(NC(=O)CCNC(=O)c3nc(NC(=O)CCCNC(=O)c4cc(NC(=O)c5nc(NC(=O)CCNC(=O)c6cc(NC(=O)c7nccn7C)cn6C)cn5C)cn4C)cn3C)cn2C)cn1C [Compound B-414] |  |  | 100 to 500 | < 100 |
| CC(Nc1cc(C(=O)NCCC(=O)Nc2cn(C)c(C(=O)Nc3cc(C(=O)NCCCC(=O)Nc4cn(C)c(C(=O)Nc5cc(C(=O)NCCC(=O)Nc6cn(C)c(C(=O)NCCC(=O)NCCCCN=[N+]=[N-])n6)n(C)c5)n4)n(C)c3)n2)n(C)c1)c1nccn1C (centres unmarked) [Compound B-75] | 500 to 1000 | > 1000 |  |  |
| CCN(CC)CCCC[C@H](NC(C)=O)C(=O)Nc1ccc(CNC(=O)CCNC(=O)c2nc(NC(=O)c3cc(NC(=O)CCNC(=O)c4nc(NC(=O)CCCNC(=O)c5cc(NC(=O)c6nc(NC(=O)CCNC(=O)c7cc(NC(=O)c8nccn8C)cn7C)cn6C)cn5C)cn4C)cn3C)cn2C)cc1 [Compound B-149] | 100 to 500 | > 1000 |  |  |
| Cn1cc(NC(=O)c2nc(NC(=O)CCNC(=O)c3cc(NC(=O)c4nccn4C)cn3C)cn2C)cc1C(=O)NCCCC(=O)Nc1cn(C)c(C(=O)NCCC(=O)Nc2cc(C(=O)Nc3cn(C)c(C(=O)NCCC(=O)NCCOCCN4CCC(C#CC#CC5CCNCC5)CC4)n3)n(C)c2)n1 [Compound B-20] | 500 to 1000 | 500 to 1000 |  |  |
| CCCCCNC(=O)c1nc(NC(=O)c2cc(NC(=O)CCNC(=O)c3nc(NC(=O)CCCNC(=O)c4cc(NC(=O)c5nc(NC(=O)CCNC(=O)c6cc(NC(=O)c7nccn7C)cn6C)cn5C)cn4CCCCCCNC(=O)CCOCCOCCOCCOCCOCCOC)cn3C)cn2C)cn1C [Compound B-236] | 100 to 500 | 100 to 500 |  |  |
| CC(=O)N1CCC(C#CC#CC2CCN(C(=O)CCNC(=O)c3nc(NC(=O)c4cc(NC(=O)CCNC(=O)c5nc(NC(=O)CCCNC(=O)c6cc(NC(=O)c7nc(NC(=O)CCNC(=O)c8cc(NC(=O)c9nccn9C)cn8C)cn7C)cn6CCCOCCN)cn5C)cn4C)cn3C)CC2)CC1 [Compound B-302] | < 100 | < 100 |  |  |
| CN(C)CCCNC(=O)CCNC(=O)c1nc(NC(=O)c2cc(NC(=O)CCNC(=O)c3nc(NC(=O)CCCNC(=O)c4cc(NC(=O)c5nc(NC(=O)CCNC(=O)c6cc(NC(=O)c7nccn7C)cn6C)cn5C)cn4C)cn3C)cn2C)cn1C [Compound B-33] | 100 to 500 | 100 to 500 |  |  |
| CC(=O)N1CCC(C#CC#CC2CCN(CCCNC(=O)c3nc(NC(=O)c4cc(NC(=O)CCNC(=O)c5nc(NC(=O)CCCNC(=O)c6cc(NC(=O)c7nc(NC(=O)CCNC(=O)c8cc(NC(=O)c9nccn9C)cn8C)cn7C)cn6C)cn5C)cn4C)cn3C)CC2)CC1 [Compound B-251] | < 100 | < 100 |  |  |
| CN(C)CCCCNC(=O)c1nc(NC(=O)c2cc(NC(=O)CCNC(=O)c3nc(NC(=O)C[C@@H](N)CNC(=O)c4cc(NC(=O)c5nc(NC(=O)CCNC(=O)c6cc(NC(=O)c7nccn7C)cn6C)cn5C)cn4C)cn3C)cn2C)cn1C [Compound B-422] |  |  | > 1000 | > 1000 |
| CCCNC(=O)c1cc(NC(=O)CCNC(=O)c2nc(NC(=O)[C@H](N)CCNC(=O)c3cc(NC(=O)c4nc(NC(=O)CCNC(=O)c5cc(NC(=O)c6nccn6C)cn5C)cn4C)cn3C)cn2C)cn1C [Compound B-366] | > 1000 | > 1000 |  |  |
| CCN(CC)CCCC[C@H](NC(=O)c1ccc(C(C)(C)C)cc1)C(=O)NCCOCCOCCOCCOCCOCCNC(=O)CCNC(=O)c1nc(NC(=O)c2cc(NC(=O)CCNC(=O)c3nc(NC(=O)CCCNC(=O)c4cc(NC(=O)c5nc(NC(=O)CCNC(=O)c6cc(NC(=O)c7nccn7C)cn6C)cn5C)cn4C)cn3C)cn2C)cn1C [Compound B-92] | 100 to 500 | 500 to 1000 |  |  |
| CCOC(=O)c1nc(NC(=O)c2cc(NC(=O)CCNC(=O)c3nc(NC(=O)CCCNC(=O)c4cc(NC(=O)c5nc(NC(=O)CCNC(=O)c6cc(NC(=O)c7nccn7C)cn6C)cn5C)cn4CCCCCCN=[N+]=[N-])cn3C)cn2C)c[nH]1 [Compound B-373] | > 1000 | > 1000 |  |  |
| CC(=O)NCCOCCCn1cc(NC(=O)c2nc(NC(=O)CCNC(=O)c3cc(NC(=O)c4nccn4C)cn3C)cn2C)cc1C(=O)NCCCC(=O)Nc1cn(C)c(C(=O)NCCC(=O)Nc2cc(C(=O)Nc3cn(C)c(C(=O)NCCC(=O)N4CCC(C#CC#CC5CCNCC5)CC4)n3)n(C)c2)n1 [Compound B-306] | < 100 | < 100 |  |  |
| Cn1cc(NC(=O)c2nc(NC(=O)CCNC(=O)c3cc(NC(=O)c4nccn4C)cn3C)cn2C)cc1C(=O)NCCCC(=O)Nc1cn(C)c(C(=O)NCCC(=O)Nc2cc(C(=O)Nc3cn(C)c(C(=O)NCCC(=O)NC(C)(C)C)n3)n(C)c2)n1 [Compound B-47] | 100 to 500 | 100 to 500 |  |  |
| Cn1cc(NC(=O)c2nc(NC(=O)CCNC(=O)c3cc(NC(=O)c4nccn4C)cn3C)cn2C)cc1C(=O)NCCCC(=O)Nc1cn(C)c(C(=O)NCCC(=O)Nc2cc(C(=O)Nc3cn(C)c(C(=O)NCCC(=O)NCC#CC#Cc4ccccc4)n3)n(C)c2)n1 [Compound B-134] | < 100 | < 100 |  |  |
| CN(CCCNC(=O)c1cccc(C(=O)O)c1)CCCNC(=O)c1cc(NC(=O)CCNC(=O)c2nc(NC(=O)[C@H](N)CCNC(=O)c3cc(NC(=O)c4nc(NC(=O)CCNC(=O)c5cc(NC(=O)c6nccn6C)cn5C)cn4C)cn3C)cn2C)cn1C [Compound B-368] | > 1000 | > 1000 |  |  |
| COCCOCCOCCOCCN(CCCCCn1cc(NC(=O)c2nc(NC(=O)CCNC(=O)c3cc(NC(=O)c4nccn4C)cn3C)cn2C)cc1C(=O)NCCCC(=O)Nc1cn(C)c(C(=O)NCCC(=O)Nc2cc(C(=O)Nc3cn(C)c(C(=O)NCCC(=O)N4CCC(C#CC#CC5CCNCC5)CC4)n3)n(C)c2)n1)CCOCCOCCOCCOC [Compound B-258] | 500 to 1000 | 500 to 1000 |  |  |
| Cn1cc(NC(=O)c2nccn2C)cc1C(=O)NCCC(=O)Nc1cn(C)c(C(=O)Nc2cc(C(=O)NC[C@H](N)CC(=O)Nc3cn(C)c(C(=O)NCCC(=O)Nc4cc(C(=O)Nc5cn(C)c(C(=O)NCCC(=O)N6CCCCC6)n5)n(C)c4)n3)n(C)c2)n1 [Compound B-418] |  |  | 100 to 500 | < 100 |
| CCCNC(=O)c1cc(NC(=O)c2nc(NC(=O)CCNC(=O)c3cc(NC(=O)c4nc(NC(=O)CCCNC(=O)c5cc(NC(=O)c6nc(NC(=O)CCNC(=O)c7cc(NC(=O)c8nccn8C)cn7C)cn6C)cn5C)cn4C)cn3C)cn2C)cn1C [Compound B-9] | > 1000 | < 100 |  |  |
| C=C(NCCC(=O)Nc1cc(C(=O)Nc2cn(C)c(C(=O)NCCC(=O)NCCC)n2)n(C)c1)c1nc(NC(=O)CCCNC(=O)c2cc(NC(=O)c3nc(NC(=O)CCNC(=O)c4cc(NC(=O)c5nccn5C)cn4C)cn3C)cn2CCCn2cc(COCCOCCOCCOC)nn2)cn1C [Compound B-401] | 100 to 500 | < 100 |  |  |
| CCCCCCn1cc(NC(=O)c2nc(NC(=O)CCNC(=O)c3cc(NC(=O)c4nccn4C)cn3C)cn2C)cc1C(=O)NCCCC(=O)Nc1cn(C)c(C(=O)NCCC(=O)Nc2cc(C(=O)Nc3cn(C)c(C(=O)NCCC(=O)NCCC)n3)n(C)c2)n1 [Compound B-323] | < 100 | < 100 |  |  |
